Laboratory results taken from patent US20250154288A1, “CYTOTOXICITY TARGETING CHIMERAS FOR C-C CHEMOKINE RECEPTOR 2-EXPRESSING CELLS” (GLAXOSMITHKLINE INTELLECTUAL PROPERTY DEVELOPMENT LIMITED, priority 2022, published 2025).
Counter-ions that a name gives are not always drawn.

Biological target: T1, CHOK1 cells engineered to overexpress human CCR2 (Homo sapiens, UniProt P41597)
T1 construct: expressed in transfected cells; host or cells: CHOK1
Test: Antibody Dependent Cellular Cytotoxicity (ADCC) Reporter Assay
Format: cell-based
Conditions: with anti-cotinine antibody (human IgG1 Fc, S239D/I332E); Jurkat FcγRIIIa NFAT-luciferase reporter cells; average if several runs; read-out: ADCC Reporter Assay pEC50 (converted)
Procedure: An antibody dependent cellular cytoxocity reporter assay was conducted using the following four assay components: (i) ARM compound of Formula (I) targeting CCR2 (concentrations ranging from 1 pM to 10 μM) (ii) anti-cotinine antibody having a heavy chain sequence of SEQ ID NO: 11 and a light chain sequence of SEQ ID NO: 12 (rabbit variable region with human IgG1 Fc domain containing a DE mutation (S239D/I332E)) (concentrations ranging from 0.01 μg/mL to 200 μg/mL); (iii) target cells: CHOK1 cells engineered to overexpress either human CCR2 (typically 1000-20,000 cells per well) and (iv) reporter cells: Jurkat cells engineered to express FcγRIIIa with the reporter gene luciferase under the control of the NFAT promoter (typically 3000-75,000 cells per well). Reagents were combined in a final volume of 20 μL in a 384-well tissue culture treated plate. All four assay components were incubated together for about 12-18 hours. Thereafter, BioGlo Detection reagent (Promega) was added to the wells to lyse the cells and provide a substrate for the luciferase reporter protein. Luminescence signal was measured on a microplate reader and signal:background was calculated by dividing the signal of a test well by the signal obtained when no heterobivalent compound of Formula (I) was added. EC50 calculations were done using Graphpad Prism Software, specifically a nonlinear regression curve fit (Y=Bottom+(Top−Bottom)/(1+10 ^((Log EC50−X)*HillSlope))).
ARMs compounds of Formula (I) of the invention were tested for ADCC activity in the above assay in or more experimental runs and the results are shown in Table 3 below. Potency of the compounds of Formula (I) of the invention is reported as a pEC50 value. The pEC50 value is the negative log of the EC50 value, wherein the EC50 value is the half maximal effective concentration measured in molar (M). For compounds tested in more than one experimental run, the pEC50 value is reported as an average.

| SMILES | EC50 |
| --- | --- |
| CO[C@@H]1COCC[C@@H]1N[C@@H]1CC[C@@](C(=O)N2Cc3cc(C(F)(F)F)cnc3[C@@H](NC(=O)CCOCCOCCOCCOCCOCCOCCOCCOCCOCCOCCOCCOCCNC(=O)[C@H]3CC(=O)N(C)[C@@H]3c3cccnc3)C2)(C(C)C)C1 (stereo in doubt) [Example 24, (2S,3S)-N-(39-(((S)-6-((1S,3R)-1-Isopropyl-3-(((3S,4S)-3-methoxytetrahydro-2H-pyran-4-yl)amino)cyclopentane-1-carbonyl)-3-(trifluoromethyl)-5,6,7,8-tetrahydro-1,6-naphthyridin-8-yl)amino)-39-oxo-3,6,9,12,15,18,21,24,27,30,33,36-dodecaoxanonatriacontyl)-1-methyl-5-oxo-2-(pyridin-3-yl)pyrrolidine-3-carboxamide, 3Formic acid salt] | 1 nM |
| CO[C@@H]1COCC[C@@H]1N[C@@H]1CC[C@](CCCCNC(=O)[C@H]2CC[C@@H](NC(=O)CCOCCOCCOCCNC(=O)[C@H]3CC(=O)N(C)[C@@H]3c3cccnc3)CC2)(C(=O)N2CCc3ncc(C(F)(F)F)cc3C2)C1 [Example 18, (2S,3S)-N-(2-(2-(2-(3-(((1R,4s)-4-((4-((1S,3R)-3-(((3S,4S)-3-Methoxytetrahydro-2H-pyran-4-yl)amino)-1-(3-(trifluoromethyl)-5,6,7,8-tetrahydro-1,6-naphthyridine-6-carbonyl)cyclopentyl)butyl)carbamoyl)cyclohexyl)amino)-3-oxopropoxy)ethoxy)ethoxy)ethyl)-1-methyl-5-oxo-2-(pyridin-3-yl)pyrrolidine-3-carboxamide, Formic acid salt] | 5.01 nM |
| CO[C@@H]1COCC[C@@H]1N[C@@H]1CC[C@@](C(=O)N2Cc3cc(C(F)(F)F)cnc3[C@H](NC(=O)CCOCCOCCOCCOCCOCCOCCOCCOCCOCCOCCOCCOCCNC(=O)[C@H]3CC(=O)N(C)[C@@H]3c3cccnc3)C2)(C(C)C)C1 [Example 23, (2S,3S)—N-(39-(((R)-6-((1S,3R)-1-Isopropyl-3-(((3S,4S)-3-methoxytetrahydro-2H-pyran-4-yl)amino)cyclopentane-1-carbonyl)-3-(trifluoromethyl)-5,6,7,8-tetrahydro-1,6-naphthyridin-8-yl)amino)-39-oxo-3,6,9,12,15,18,21,24,27,30,33,36-dodecaoxanonatriacontyl)-1-methyl-5-oxo-2-(pyridin-3-yl)pyrrolidine-3-carboxamide, 3Formic acid salt] | 0.398 nM |
